This passage reports H2O2 production results from patent US20060154255A1, “Blood and tissue sample assessment of mitochondrial function and biochemistry as a tool for selection for feed efficiency and other production parameters” (priority 2002, published 2006).

The subject of assay [1] is breast muscle mitochondria. The assay can be described thus: H2O2 production (electron leak) in breast muscle mitochondria with respiratory chain inhibitors. The class given is biochemical, broilers.
Assay [2] relates to leg muscle mitochondria. The assay can be described thus: H2O2 production (electron leak) in leg muscle mitochondria with respiratory chain inhibitors. In kind it is biochemical, broilers. As to conditions: low FE leg muscle mitochondria; versus no inhibitor (NI); rotenone 10 μM; P<0.07.
Setting [3] is: breast muscle mitochondria, inhibition at Complex II or Q cycle of Complex III, malonate 7 μM, TTFA 8 μM, myxothiazol 13 μM.
[4] abbreviates: low FE breast muscle mitochondria, versus no inhibitor (NI), rotenone 10 μM, antimycin A 13 μM.

In the case of `O=C(O)CC(=O)O` [malonate], the H2O2 production result in assay [1] (setting [3]) is “No differences were observed”.

Regarding antimycin A, the H2O2 production entry in assay [1] (setting [4]) is reported as “raised H2O2 production”.

Turning to `C=C(C)[C@H]1Cc2c(ccc3c2O[C@@H]2COc4cc(OC)c(OC)cc4[C@@H]2C3=O)O1` [rotenone], the H2O2 production entry in assay [1] (setting [4]) is recorded as “raised H2O2 production”; in assay [2], “an elevation”.

With `CO/C(=C/C(N)=O)[C@H](C)[C@H](/C=C/c1csc(-c2csc([C@@H](C)/C=C/C=C/C(C)C)n2)n1)OC` [myxothiazol], in assay [1] (setting [3]), the H2O2 production result is reported as “No differences were observed”.

Turning to `O=C(CC(=O)C(F)(F)F)c1cccs1` [TTFA, 4,4,4-trifluoro-1-[2-thienyl]-1,3-butanedione], the H2O2 production entry in assay [1] (setting [3]) is reported as “No differences were observed”.
